Measured values from patent US8030498B2, “Benzoylpyrazole compounds and herbicides containing them” (Ishihara Sangyo Kaisha, Ltd., priority 2005, dated 2011).

What was measured:
[1] = test system: barnyardgrass (Echinochloa crus-galli L.); assay: Test Example 1: foliar treatment, growth inhibition rate, barnyardgrass; assay type: in vivo; conditions: 31 g/ha active ingredient, visually observed 17th to 23rd day after application
Outline: (§1)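 Potted upland soil; compounds as wettable powders or emulsifiable concentrates diluted in water at 500 L/ha plus 0.1 vol % spreader, foliar-sprayed at defined leaf stages (rice 1.0–2.5, wheat 1.7–3.4, corn 2.0–3.5, greenfoxtail 1.0–3.0). Growth inhibition (0–100%) scored visually 17–23 days after application.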

[2] = test system: crabgrass (Digitaria sanguinalis L.); assay: Test Example 1: foliar treatment, growth inhibition rate, crabgrass; assay type: in vivo; conditions: 31 g/ha active ingredient, visually observed 17th to 23rd day after application
Outline: (§2)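 Visual scoring of growth inhibition, 0% (untreated) to 100% (complete kill), on days 17–23 following post-emergence spray of formulated compound in water (500 L/ha, 0.1 vol % spreader); plants treated at set leaf stages, e.g. corn 2.0–3.5, wheat 1.7–3.4.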

[3] = test system: greenfoxtail (Setaria viridis L.); assay: Test Example 1: foliar treatment, growth inhibition rate, greenfoxtail; assay type: in vivo; conditions: 31 g/ha active ingredient, visually observed 17th to 23rd day after application
Outline: (§3)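 Post-emergence foliar spray, pot test; WP/EC formulation in water at 500 L/ha, + 0.1 vol % spreader; leaf stage at treatment: corn 2.0–3.5, green foxtail 1.0–3.0, rice 1.0–2.5, wheat 1.7–3.4; visual % inhibition at 17–23 DAT (0 = untreated, 100 = dead).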

[4] = test system: redroot pigweed (Amaranthus retroflexus L.); assay: Test Example 1: foliar treatment, growth inhibition rate, redroot pigweed; assay type: in vivo; conditions: 31 g/ha active ingredient, visually observed 17th to 23rd day after application
Outline: as §2

[5] = test system: velvetleaf (Abutilon theophrasti MEDIC.); assay: Test Example 1: foliar treatment, growth inhibition rate, velvetleaf; assay type: in vivo; conditions: 31 g/ha active ingredient, visually observed 17th to 23rd day after application
Outline: as §1

rice (Oryza sativa L.) = assay: Test Example 1: foliar treatment, growth inhibition rate, rice; assay type: in vivo; conditions: 31 g/ha active ingredient, visually observed 17th to 23rd day after application
Outline: as §3

wheat (Triticum spp.) = assay: Test Example 1: foliar treatment, growth inhibition rate, wheat; assay type: in vivo; conditions: 31 g/ha active ingredient, visually observed 17th to 23rd day after application
Outline: as §3

corn (Zea mays L.) = assay: Test Example 1: foliar treatment, growth inhibition rate, corn; assay type: in vivo; conditions: 31 g/ha active ingredient, visually observed 17th to 23rd day after application
Outline: as §3

[6] = test system: soybean (Glycine max Merr.); assay: Test Example 1: foliar treatment, growth inhibition rate, soybean; assay type: in vivo; conditions: 31 g/ha active ingredient, visually observed 17th to 23rd day after application
Outline: as §2

barnyardgrass = assay: Test Example 2: soil application on the day after sowing, growth inhibition rate, barnyardgrass; assay type: in vivo, Echinochloa crus-galli L.; conditions: 250 g/ha active ingredient, observed on 19th to 24th day
Outline: (§4)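 Seeds were sown in upland field soil in pots, and on the following day compounds formulated as wettable powders or emulsifiable concentrates were diluted in water (500 liter per hectare) and sprayed onto the soil at prescribed active-ingredient doses. Growth was scored visually 19–24 days later, 0 = untreated to 100% = complete kill.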

crabgrass = assay: Test Example 2: soil application on the day after sowing, growth inhibition rate, crabgrass; assay type: in vivo, Digitaria sanguinalis L.; conditions: 250 g/ha active ingredient, observed on 19th to 24th day
Outline: as §4

greenfoxtail = assay: Test Example 2: soil application on the day after sowing, growth inhibition rate, greenfoxtail; assay type: in vivo, Setaria viridis L.; conditions: 250 g/ha active ingredient, observed on 19th to 24th day
Outline: as §4

redroot pigweed = assay: Test Example 2: soil application on the day after sowing, growth inhibition rate, redroot pigweed; assay type: in vivo, Amaranthus retroflexus L.; conditions: 250 g/ha active ingredient, observed on 19th to 24th day
Outline: as §4

prickly sida = assay: Test Example 2: soil application on the day after sowing, growth inhibition rate, prickly sida; assay type: in vivo, Sida spinosa L.; conditions: 250 g/ha active ingredient, observed on 19th to 24th day
Outline: as §4

velvetleaf = assay: Test Example 2: soil application on the day after sowing, growth inhibition rate, velvetleaf; assay type: in vivo, Abutilon theophrasti MEDIC.; conditions: 250 g/ha active ingredient, observed on 19th to 24th day
Outline: as §4

rice = assay: Test Example 2: soil application on the day after sowing, growth inhibition rate, rice; assay type: in vivo, Oryza sativa L.; conditions: 250 g/ha active ingredient, observed on 19th to 24th day
Outline: as §4

wheat = assay: Test Example 2: soil application on the day after sowing, growth inhibition rate, wheat; assay type: in vivo, Triticum spp.; conditions: 250 g/ha active ingredient, observed on 19th to 24th day
Description: Upland field soil was put into a 1/170,000 hectare pot, and seeds of various plants (barnyardgrass, crabgrass, greenfoxtail, redroot pigweed, prickly sida, velvetleaf, rice, wheat, corn and soybean) were sown. On the day after sowing, wettable powders or emulsifiable concentrates of the compounds of the present invention prepared in accordance with a conventional preparation method, were weighed so that the active ingredients became the prescribed amounts, and diluted with water in an amount corresponding to 500 liter per 1 hectare, followed by soil application with a small sprayer. On the 19th to 24th day after the application, the state of growth of the respective plants was visually observed, and the herbicidal effect was evaluated in accordance with a growth inhibition rate (%) of from 0 (equivalent to the non-treated area) to 100% (complete kill).

corn = assay: Test Example 2: soil application on the day after sowing, growth inhibition rate, corn; assay type: in vivo, Zea mays L.; conditions: 250 g/ha active ingredient, observed on 19th to 24th day
Outline: as §4

soybean = assay: Test Example 2: soil application on the day after sowing, growth inhibition rate, soybean; assay type: in vivo, Glycine max Merr.; conditions: 250 g/ha active ingredient, observed on 19th to 24th day
Outline: as §4

[7] = test system: prickly sida (Sida spinosa L.); assay: Test Example 1: foliar treatment, growth inhibition rate, prickly sida; assay type: in vivo; conditions: 31 g/ha active ingredient, visually observed 17th to 23rd day after application
Outline: as §2

With CCSC(=O)Oc1c(C(=O)c2ccc(S(C)(=O)=O)c(OCCOC)c2C)cnn1C [Compound No. 55, 5-(ethylthio)carbonyloxy-1-methylpyrazol-4-yl 3-(2-methoxyethoxy)-2-methyl-4-(methylsulfonyl)phenyl ketone] the pest or weed control at 31 g/ha ([1]; Echinochloa crus-galli) was 100%, the pest or weed control at 31 g/ha ([2]; Digitaria sanguinalis) was 100% and the pest or weed control at 31 g/ha ([3]; Setaria viridis) was 100%. The “Growth inhibition rate (%) redroot pigweed” value [4] was 95%, the pest or weed control at 31 g/ha ([5]; Abutilon theophrasti) was 100% and the pest or weed control at 31 g/ha (rice (Oryza sativa L.); Oryza sativa) was 60%. The pest or weed control at 31 g/ha (wheat (Triticum spp.); Triticum) was 10%, the pest or weed control at 31 g/ha (corn (Zea mays L.); Zea mays) was 40% and the “Growth inhibition rate (%) Soybean” value [6] was 95%. For the same compound, the inhibition at 250 g/ha (barnyardgrass; Echinochloa crus-galli) was 100%, the inhibition at 250 g/ha (crabgrass; Digitaria sanguinalis) was 100% and the inhibition at 250 g/ha (greenfoxtail; Setaria viridis) was 100%. It also gave an inhibition at 250 g/ha (redroot pigweed; Amaranthus retroflexus) of 100%, an inhibition at 250 g/ha (prickly sida; Sida spinosa) of 70% and an inhibition at 250 g/ha (velvetleaf; Abutilon theophrasti) of 95%. For the same compound, the inhibition at 250 g/ha (rice; Oryza sativa) was 70%, the inhibition at 250 g/ha (wheat; Triticum aestivum) was 0% and the inhibition at 250 g/ha (corn; Zea mays) was 0%. It also gave an inhibition at 250 g/ha (soybean; Glycine max) of 0%.
With CCSC(=O)Oc1c(C(=O)c2ccc(S(C)(=O)=O)c(OC(C)C)c2C)cnn1C [compound 37] the “Growth inhibition rate (%) Barnyardgrass” value [1] was 95%, the “Growth inhibition rate (%) Crabgrass” value [2] was 80% and the “Growth inhibition rate (%) Greenfoxtail” value [3] was 100%. For the same compound, the “Growth inhibition rate (%) redroot pigweed” value [4] was 100%, the “Growth inhibition rate (%) Velvetleaf” value [5] was 95% and the “Growth inhibition rate (%) Rice” value (rice (Oryza sativa L.)) was 70%. The “Growth inhibition rate (%) Wheat” value (wheat (Triticum spp.)) was 0%, the “Growth inhibition rate (%) Corn” value (corn (Zea mays L.)) was 0% and the “Growth inhibition rate (%) Soybean” value [6] was 70%. The “Growth inhibition rate (%) Barnyardgrass” value (barnyardgrass) was 60%, the “Growth inhibition rate (%) Crabgrass” value (crabgrass) was 80% and the “Growth inhibition rate (%) Greenfoxtail” value (greenfoxtail) was 60%. For the same compound, the “Growth inhibition rate (%) redroot pigweed” value (redroot pigweed) was 50%, the “Growth inhibition rate (%) Prickly sida” value (prickly sida) was 10% and the “Growth inhibition rate (%) Velvetleaf” value (velvetleaf) was 30%. The “Growth inhibition rate (%) Rice” value (rice) was 10%, the “Growth inhibition rate (%) Wheat” value (wheat) was 0% and the “Growth inhibition rate (%) Corn” value (corn) was 0%. For the same compound, the “Growth inhibition rate (%) Soybean” value (soybean) was 0%.
With CCOC(=O)c1c(S(C)(=O)=O)ccc(C(=O)c2cnn(CC)c2OC(=O)SC)c1C [compound 62] the “Growth inhibition rate (%) Barnyardgrass” value [1] was 100%, the “Growth inhibition rate (%) Crabgrass” value [2] was 100% and the “Growth inhibition rate (%) Greenfoxtail” value [3] was 100%. The “Growth inhibition rate (%) redroot pigweed” value [4] was 100%, the “Growth inhibition rate (%) Velvetleaf” value [5] was 95% and the “Growth inhibition rate (%) Rice” value (rice (Oryza sativa L.)) was 80%. For the same compound, the “Growth inhibition rate (%) Wheat” value (wheat (Triticum spp.)) was 50%, the “Growth inhibition rate (%) Corn” value (corn (Zea mays L.)) was 10% and the “Growth inhibition rate (%) Soybean” value [6] was 90%. For the same compound, the “Growth inhibition rate (%) Barnyardgrass” value (barnyardgrass) was 80%, the “Growth inhibition rate (%) Crabgrass” value (crabgrass) was 95% and the “Growth inhibition rate (%) Greenfoxtail” value (greenfoxtail) was 95%. For the same compound, the “Growth inhibition rate (%) redroot pigweed” value (redroot pigweed) was 100%, the “Growth inhibition rate (%) Prickly sida” value (prickly sida) was 90% and the “Growth inhibition rate (%) Velvetleaf” value (velvetleaf) was 90%. The “Growth inhibition rate (%) Rice” value (rice) was 70%, the “Growth inhibition rate (%) Wheat” value (wheat) was 30% and the “Growth inhibition rate (%) Corn” value (corn) was 0%. For the same compound, the “Growth inhibition rate (%) Soybean” value (soybean) was 0%.
With CCSC(=O)Oc1c(C(=O)c2ccc(S(C)(=O)=O)c(COC)c2C)cnn1C [compound 63] the “Growth inhibition rate (%) Barnyardgrass” value [1] was 95%, the “Growth inhibition rate (%) Crabgrass” value [2] was 98% and the “Growth inhibition rate (%) Greenfoxtail” value [3] was 100%. For the same compound, the “Growth inhibition rate (%) redroot pigweed” value [4] was 95%, the “Growth inhibition rate (%) Velvetleaf” value [5] was 95% and the “Growth inhibition rate (%) Rice” value (rice (Oryza sativa L.)) was 90%. For the same compound, the “Growth inhibition rate (%) Wheat” value (wheat (Triticum spp.)) was 10%, the “Growth inhibition rate (%) Corn” value (corn (Zea mays L.)) was 0% and the “Growth inhibition rate (%) Soybean” value [6] was 95%. For the same compound, the “Growth inhibition rate (%) Barnyardgrass” value (barnyardgrass) was 95%, the “Growth inhibition rate (%) Crabgrass” value (crabgrass) was 95% and the “Growth inhibition rate (%) Greenfoxtail” value (greenfoxtail) was 90%. The “Growth inhibition rate (%) redroot pigweed” value (redroot pigweed) was 90%, the “Growth inhibition rate (%) Prickly sida” value (prickly sida) was 80% and the “Growth inhibition rate (%) Velvetleaf” value (velvetleaf) was 70%. For the same compound, the “Growth inhibition rate (%) Rice” value (rice) was 80%, the “Growth inhibition rate (%) Wheat” value (wheat) was 0% and the “Growth inhibition rate (%) Corn” value (corn) was 0%. The “Growth inhibition rate (%) Soybean” value (soybean) was 0%.
With CCSC(=O)Oc1c(C(=O)c2ccc(S(C)(=O)=O)c(CC(=O)OC)c2C)cnn1C [compound 64] the “Growth inhibition rate (%) Barnyardgrass” value [1] was 100%, the “Growth inhibition rate (%) Greenfoxtail” value [3] was 65% and the “Growth inhibition rate (%) redroot pigweed” value [4] was 80%. The “Growth inhibition rate (%) Prickly sida” value [7] was 60%, the “Growth inhibition rate (%) Velvetleaf” value [5] was 85% and the “Growth inhibition rate (%) Rice” value (rice (Oryza sativa L.)) was 70%. For the same compound, the “Growth inhibition rate (%) Wheat” value (wheat (Triticum spp.)) was 0%, the “Growth inhibition rate (%) Corn” value (corn (Zea mays L.)) was 0% and the “Growth inhibition rate (%) Barnyardgrass” value (barnyardgrass) was 90%. The “Growth inhibition rate (%) Crabgrass” value (crabgrass) was 95%, the “Growth inhibition rate (%) Greenfoxtail” value (greenfoxtail) was 50% and the “Growth inhibition rate (%) redroot pigweed” value (redroot pigweed) was 80%. For the same compound, the “Growth inhibition rate (%) Prickly sida” value (prickly sida) was 60%, the “Growth inhibition rate (%) Velvetleaf” value (velvetleaf) was 30% and the “Growth inhibition rate (%) Rice” value (rice) was 70%. For the same compound, the “Growth inhibition rate (%) Wheat” value (wheat) was 0%, the “Growth inhibition rate (%) Corn” value (corn) was 0% and the “Growth inhibition rate (%) Soybean” value (soybean) was 0%.
